Test results published in ChEMBL document CHEMBL2029321, “Identification of chalcones as potent and selective PDE5A1 inhibitors” (Bioorg Med Chem Lett, 2012).

How the values were obtained:
[1] = biological target: cGMP-specific 3',5'-cyclic phosphodiesterase (Homo sapiens) (UniProt O76074); test: Inhibition of PDE5A1 at 10 ug/mL
[2] = Inhibition of rabbit corpus cavernosum PDE6; parameters: species or system Oryctolagus cuniculus
Phosphodiesterase 4 = Phosphodiesterase 4 (Homo sapiens, UniProt P27815+Q08499+Q07343+Q08493); test: Inhibition of human neutrophil PDE4; format: protein assay
[3] = biological target: cGMP-specific 3',5'-cyclic phosphodiesterase (Bos taurus, UniProt Q28156); test: Inhibition of bovine platelet PDE5

Row | SMILES | inhibition [1] | IC50 [2] | IC50 (Phosphodiesterase 4) | IC50 [3]
1 | COc1ccc(/C=C/C(=O)c2c3c(c(OC)c4c2OCO4)CN(C)CC3)cc1 | 31.8% | – | – | –
2 | COc1ccc(OC)c(C(=O)/C=C/c2cc(OC)c(C)cc2OC)c1 | 24.9% | – | – | –
3 | COc1ccc(OC)c(/C=C/C(=O)c2cc(OC)c(C)cc2OC)c1 | 20.2% | – | – | –
4 | COc1ccc(/C=C/C(=O)c2cc(Cl)ccc2OC)cc1OC | 3.5% | – | – | –
5 | COc1ccc(/C=C/C(=O)c2c(O)cc(OC)c(OC)c2OC)c(OC)c1 | 35.7% | – | – | –
6 | COc1ccc(OC)c(/C=C/C(=O)c2c3c(c(OC)c4c2OCO4)CN(C)CC3)c1 | 45.5% | – | – | –
7 | COc1ccc(C(=O)/C=C/c2cc(Cl)ccc2Cl)c(OC)c1 | 39.5% | – | – | –
8 | COc1ccc(OC)c(/C=C/C(=O)c2ccc(Cl)cc2)c1 | 8.1% | – | – | –
9 | COc1ccc(C(=O)/C=C/c2cc(OC)c(OC)cc2OC)c(OC)c1 | 65.9% | > 10 µM | > 10 µM | 1.8 µM
10 | COc1ccc(/C=C/C(=O)c2cc(OC)ccc2OC)cc1 | 25.6% | – | – | –
11 | COc1ccc(OC)c(C(=O)/C=C/c2ccc(OC)c(OC)c2)c1 | 66.1% | > 10 µM | 8.2 µM | 7 µM
12 | CCCOc1ccccc1-c1nc2[nH]nnc2c(=O)[nH]1 [ZAPRINAST] | – | 0.4 µM | – | –
13 | COc1ccc(/C=C/C(=O)c2cc(OC)c(OC)cc2CCNC(C)=O)c(OC)c1 | 45.5% | – | – | –

The remaining lines, values ahead:

Row | inhibition [1] | IC50 [2] | IC50 (Phosphodiesterase 4) | IC50 [3] | SMILES
14 | 8.17% | – | – | – | COc1c2c(c(C(=O)/C=C/c3ccc(Cl)cc3Cl)c3c1OCO3)CCN(C)C2
15 | 43.9% | – | – | – | COc1cccc(/C=C/C(=O)c2c3c(c(OC)c4c2OCO4)CN(C)CC3)c1OC
16 | 43.1% | – | – | – | COc1ccc(C(=O)/C=C/c2ccccc2OC)c(OC)c1
17 | 64.8% | > 10 µM | > 10 µM | 6.2 µM | COc1cccc(/C=C/C(=O)c2c3c(c(OC)c4c2OCO4)CN(C)CC3)c1
18 | – | 0.1 µM | – | – | CCCc1nn(C)c2c(=O)[nH]c(-c3cc(S(=O)(=O)N4CCN(C)CC4)ccc3OCC)nc12
19 | 58.7% | > 10 µM | 4.9 µM | 6 µM | COc1ccc(OC)c(/C=C/C(=O)c2ccc(OC)cc2OC)c1
20 | 77.7% | > 10 µM | 2.3 µM | 5.9 µM | COc1ccc(/C=C/C(=O)c2c(OCc3ccccc3)cc(OC)c(OC)c2OC)cc1OC
21 | 26.6% | – | – | – | COc1ccc(OC)c(/C=C/C(=O)c2ccc(SC)cc2)c1
22 | 46.7% | – | – | – | COc1ccc(C(=O)/C=C/c2cccc(OC)c2OC)c(OC)c1
23 | 18.3% | – | – | – | COC(=O)C[N+]1(C)CCc2c(c(OC)c3c(c2C(=O)/C=C/c2ccc(OC)cc2OC)OCO3)C1 (configuration not stated)
24 | 35.1% | – | – | – | COc1ccc(/C=C/C(=O)c2c3c(c(OC)c4c2OCO4)CN(C)CC3)c(OC)c1
25 | 27.7% | – | – | – | COc1cc(CCNC(C)=O)c(C(=O)/C=C/c2cccc(OC)c2OC)cc1OC
26 | – | > 10 µM | – | – | COc1ccc(C2CNC(=O)C2)cc1OC1CCCC1 (configuration not stated) [ROLIPRAM]
27 | 37.1% | – | – | – | COc1ccc(/C=C/C(=O)c2c3c(c(OC)c4c2OCO4)CN(C)CC3)c(OC)c1OC
28 | 7.2% | – | – | – | COC(=O)C[N+]1(C)CCc2c(cc3c(c2C(=O)/C=C/c2cc(OC)ccc2OC)OCO3)C1 (configuration not stated)
29 | 23.8% | – | – | – | COc1ccc(C(=O)/C=C/c2ccc(OC)c(OC)c2)c(O)c1
30 | 47.4% | – | – | – | COc1ccc(OC)c(/C=C/C(=O)c2cc(OC)c(OC)cc2CCNC(C)=O)c1
31 | 47.3% | – | – | – | COc1ccc(OC)c(/C=C/C(=O)c2ccc(OC)c(OC)c2)c1
32 | 19.9% | – | – | – | COc1ccccc1/C=C/C(=O)c1cc(OC)c(OC)cc1CCNC(C)=O
